# From patent publication US9580435B2, “Pyrrolo[2,3-D]pyrimidine derivatives as CB2 receptor agonists” (priority 2013, dated 2017)
# Experiments:
# [1] = molecular target: T1, human CB2 receptors (Homo sapiens, UniProt P34972); experiment: functional cAMP assay, CHO cells expressing human CB2 receptors; assay type: cell-based
# T1 construct: expressed in transfected cells; host or cells: CHO cells
# Description: (§1) CHO cells expressing human CB1 or CB2 receptors are seeded 17-24 hours prior to the experiment 50.000 cells per well in a black 96 well plate with flat clear bottom (Corning Costar #3904) in DMEM (Invitrogen No. 31331), lx HT supplement, with 10% fetal calf serum and incubated at 5% CO2 and 37° C. in a humidified incubator. The growth medium was exchanged with Krebs Ringer Bicarbonate buffer with 1 mM IBMX and incubated at 30° C. for 30 min. Compounds were added to a final assay volume of 100 μl and incubated for 30 min at 30° C. Using the cAMP-Nano-TRF detection kit the assay (Roche Diagnostics) was stopped by the addition of 50 μl lysis reagent (Tris, NaCl, 1.5% Triton X100, 2.5% NP40, 10% NaN3) and 50 μl detection solutions (20 μM mAb Alexa700-cAMP 1:1, and 48 μM Ruthenium-2-AHA-cAMP) and shaken for 2 h at room temperature. The time-resolved energy transfer is measured by a TRF reader (Evotec Technologies GmbH), equipped with a ND:YAG laser as excitation source. The plate is measured twice with the excitation at 355 nm and at the emission with a delay of 100 ns and a gate of 100 ns, total exposure time 10 s at 730 (bandwidth 30 nm) or 645 nm (bandwidth 75 nm), respectively. The FRET signal is calculated as follows: FRET=T730-Alexa730-P(T645-B645) with P=Ru730-B730/Ru645-B645, where T730 is the test well measured at 730 nM, T645 is the test well measured at 645 nm, B730 and B645 are the buffer controls at 730 nm and 645 nm, respectively. cAMP content is determined from the function of a standard curve spanning from 10 μM to 0.13 nM cAMP.
# (§2) EC50 values were determined using Activity Base analysis (ID Business Solution, Limited). The EC50 values for a wide range of cannabinoid agonists generated from this assay were in agreement with the values published in the scientific literature.
# [2] = molecular target: T2, human CB1 receptors (Homo sapiens, UniProt P21554); experiment: functional cAMP assay, CHO cells expressing human CB1 receptors; assay type: cell-based
# T2 construct: expressed in transfected cells; host or cells: CHO cells
# Description: as §1, §2
# T2 sequence (P21554 whole entry): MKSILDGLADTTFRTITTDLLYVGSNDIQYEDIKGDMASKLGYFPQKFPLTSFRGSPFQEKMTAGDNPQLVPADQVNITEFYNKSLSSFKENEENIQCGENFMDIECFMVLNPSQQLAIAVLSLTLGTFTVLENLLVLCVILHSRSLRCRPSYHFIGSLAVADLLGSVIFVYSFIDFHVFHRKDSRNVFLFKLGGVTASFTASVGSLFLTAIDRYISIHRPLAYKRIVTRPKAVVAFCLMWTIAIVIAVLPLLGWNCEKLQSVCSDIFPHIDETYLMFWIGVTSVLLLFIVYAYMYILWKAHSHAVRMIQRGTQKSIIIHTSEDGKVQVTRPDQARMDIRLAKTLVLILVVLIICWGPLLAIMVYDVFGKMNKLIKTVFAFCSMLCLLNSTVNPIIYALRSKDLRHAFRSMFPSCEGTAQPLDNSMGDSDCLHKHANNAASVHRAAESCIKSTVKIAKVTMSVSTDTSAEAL
# T1 sequence (P34972 whole entry): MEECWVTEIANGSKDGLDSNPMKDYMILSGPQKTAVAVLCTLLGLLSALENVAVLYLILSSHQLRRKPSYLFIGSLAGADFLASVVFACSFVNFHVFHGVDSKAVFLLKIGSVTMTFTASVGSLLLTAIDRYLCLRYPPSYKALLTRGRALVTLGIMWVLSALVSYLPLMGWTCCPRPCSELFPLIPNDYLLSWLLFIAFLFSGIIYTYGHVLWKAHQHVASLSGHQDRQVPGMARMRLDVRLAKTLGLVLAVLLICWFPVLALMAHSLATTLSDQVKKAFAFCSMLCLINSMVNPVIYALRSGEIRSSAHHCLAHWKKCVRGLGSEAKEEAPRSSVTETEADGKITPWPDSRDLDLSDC
SMILES,EC50 [1],EC50 [2]
"CC(C)(C)c1nc(N2CCC(F)(F)C2)c2ccn(Cc3ccccc3C(F)(F)F)c2n1 [Example 4, 2-tert-butyl-4-(3,3-difluoropyrrolidin-1-yl)-7-[[2-(trifluoromethyl)phenyl]methyl]pyrrolo[2,3-d]pyrimidine]",7.4 nM,> 10000 nM
"CC(C)(C)c1nc(N2CC[C@H](O)C2)c2ccn(Cc3ccccc3S(C)(=O)=O)c2n1 [Example 45, (3S)-1-[2-tert-butyl-7-[(2-methylsulfonylphenyl)methyl]pyrrolo[2,3-d]pyrimidin-4-yl]pyrrolidin-3-ol]",4.2 nM,> 10000 nM
"Cc1noc(Cn2ccc3c(N4CCC(F)(F)C4)nc(C(C)(C)C)nc32)n1 [Example 8, 5-[[2-tert-butyl-4-(3,3-difluoropyrrolidin-1-yl)pyrrolo[2,3-d]pyrimidin-7-yl]methyl]-3-methyl-1,2,4-oxadiazole]",49.6 nM,> 10000 nM
"CC(C)(C)c1nc(N2CCC(F)(F)C2)c2ccn(Cc3ccc(F)cc3Cl)c2n1 [Example 2, 2-tert-butyl-7-[(2-chloro-4-fluorophenyl)methyl]-4-(3,3-difluoropyrrolidin-1-yl)pyrrolo[2,3-d]pyrimidine]",26.5 nM,> 10000 nM
"CC(C)(C)c1nc(N2CCC(F)(F)C2)c2ccn(Cc3nnnn3C3CC3)c2n1 [Example 13, 2-tert-butyl-7-[(1-cyclopropyltetrazol-5-yl)methyl]-4-(3,3-difluoropyrrolidin-1-yl)pyrrolo[2,3-d]pyrimidine]",23 nM,> 10000 nM
"CC(C)(C)c1nc(N2CC[C@H](O)C2)c2ccn(Cc3cccc(Cl)c3Cl)c2n1 [Example 42, (3S)-1-[2-tert-butyl-7-[(2,3-dichlorophenyl)methyl]pyrrolo[2,3-d]pyrimidin-4-yl]pyrrolidin-3-ol]",3.5 nM,> 10000 nM
"CC(C)(C)c1nc(N2CC3(COC3)C2)c2ccn(Cc3ccccc3Cl)c2n1 [Example 14, 6-[2-tert-butyl-7-[(2-chlorophenyl)methyl]pyrrolo[2,3-d]pyrimidin-4-yl]-2-oxa-6-azaspiro[3.3]heptane]",15.3 nM,> 10000 nM
"CC(C)(C)c1nc(N2CC3(COC3)C2)c2ccn([C@@H]3CCOC3)c2n1 [Example 17, 6-[2-tert-butyl-7-[(3R)-oxolan-3-yl]pyrrolo[2,3-d]pyrimidin-4-yl]-2-oxa-6-azaspiro[3.3]heptane]",61.8 nM,> 10000 nM
